Test [1] concerns ischemic acute renal failure model. Kind of test: Ischemic acute renal failure model, renal ischemia 60 minutes (in vivo). Further details: species or system rat (male SD rats). The settings on record: 200 mg/kg oral once a day. Here is the method:
Effect of a compound of the present invention on an in vivo renal disease was studied using an ischemic acute renal failure model.
An ischemic acute renal failure model was prepared from in groups of 8 each rats (male SD rats, weight: 224-285 g) fed with high-fat diet. High-fat diet feeding was started by free access to high-fat diet (cholesterol level 1.25%) from 7 or 8 days prior to unilateral nephrectomy and left renal artery clamping. The test compound was administered as a solution in soybean oil via oral route (4 ml/kg). Control group was orally administered soybean oil alone. The administration of compound was started from 4 or 5 days before the ischemic treatment at a dose of 200 mg/kg once a day. After the ischemia treatment, the oral administration of the compound was continued at a frequency of once a day. The ischemic treatment was performed by removing the right kidney and clipping a renal artery of the left kidney for 30 or 60 minutes.
Renal functions after ischemic treatment were determined by using urine and blood samples daily collected. Urine volume and the creatinine level of serum and urine were evaluated to calculate creatinine clearance as an indication of renal functions. Influences of high-fat diet feeding were monitored by measuring serum cholesterol level.

Test [2] relates to puromycin-induced nephrosis model. Briefly: Puromycin-induced nephrosis (2), postadministration (in vivo). Further details: species or system rat (male SD rats). The following applies: 200 mg/kg oral once a day from the day following puromycin. Here is the method: Effect of the compounds of the present invention on an in vivo renal disease was studied using a puromycin-induced nephrosis model. A puromycin-induced renal failure model was prepared from rats in groups of 5-8 each (6 week-old male SD rats) fed with high-fat diet. High-fat diet feeding was started by free access to high-fat diet (cholesterol level 1.25%) from 7 days before puromycin treatment. Puromycin (puromycin aminonucleoside, SIGMA Chemical Co.) treatment was performed by intraperitoneal administration at a dose of 100 mg/kg. Test compounds were administered as a solution in soybean oil via oral route (4 ml/kg). Control group was orally administered soybean oil alone. Probucol and a water-soluble α-tocopherol analogue, Trolox, were used as reference control compounds. The compounds were orally administered once a day from the following day of the puromycin treatment. Renal functions were determined by using urine and blood samples. The volume of urine, urea nitrogen level and creatinine levels of serum and urine were evaluated to calculate creatinine clearance as an indication of renal functions.

On to `CCCCCC1(CCCCC)Cc2c(cc(C(C)(C)C)c(O)c2C(C)(C)C)O1` [Example 36, 4,6-Di-t-butyl-2,2-di-n-pentyl-5-hydroxy-2,3-dihydrobenzofuran], for which the “Creatinine” value came out at 2.81 ± 0.42 mg/dL in test [1] (1 day after ischemia (60 minutes), control 3.89 ± 0.77, P < 0.01); 1.94 ± 0.30 mg/dL in test [1] (2 days after ischemia (60 minutes), control 3.33 ± 1.90); 1.86 ± 0.27 mg/dL in test [1] (3 days after ischemia (60 minutes), control 3.19 ± 2.19); 0.75 ± 0.11 mg/dL in test [2] (control 0.82 ± 0.07). The “Creatinine clearance” value in test [1] (1 day after ischemia (60 minutes), control 276 ± 118, P < 0.05) was found to be 478 ± 171 mL/day; in test [1] (2 days after ischemia (60 minutes), control 363 ± 140, P < 0.01), 594 ± 123 mL/day; in test [2] (control 824 ± 108), 837 ± 205 mL/day. The “Urine nitrogen” value in test [2] (control 30.74 ± 10.95) came out at 24.57 ± 10.68 mg/dL.

The record behind these values is patent US6133279A, “Therapeutic agents for renal diseases and organ preservatives” (Chugai Seiyaku Kabushiki Kaisha, priority 1996, dated 2000).
